Reference: PubChem BioAssay (NCI)
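Cells were grown in 96-well plates and exposed to each compound for 48 hours at five concentrations; endpoints were interpolated linearly between bracketing concentrations, or set to the highest concentration if not reached. At the GI50, growth is halved. TGI: concentration producing complete growth inhibition.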

Experiments:
Test in all cases: NCI anticancer screen, dose series, 48 h
[1] = tested on: M14 melanoma
[2] = tested on: NCI-H522 lung
[3] = tested on: UACC-257 melanoma
[4] = tested on: SK-MEL-5 melanoma
[5] = tested on: OVCAR-5 ovarian
[6] = tested on: SK-MEL-28 melanoma
[7] = tested on: IGROV1 ovarian
[8] = tested on: OVCAR-3 ovarian
[9] = tested on: MDA-MB-231 breast
[10] = tested on: TK-10 renal

Row | Structure (SMILES) | GI50 [1] | TGI [1] | GI50 [2] | TGI [2] | GI50 [3] | TGI [3] | GI50 [4] | TGI [4] | GI50 [5] | TGI [5] | GI50 [6] | TGI [6] | GI50 [7] | TGI [7] | GI50 [8] | TGI [8] | GI50 [9] | TGI [9] | GI50 [10] | TGI [10]
1 | CNS(=O)(=O)OCC1OC(n2cnc3c(N)ncnc32)C(O)C1O (stereo not given) | > 100000 nM | > 100 µM | > 100000 nM | > 100 µM | > 100 µM | > 100 µM | > 100 µM | > 100 µM | > 100 µM | > 100 µM | > 100 µM | > 100 µM | > 100000 nM | > 100 µM | > 100 µM | > 100 µM | > 100000 nM | > 100 µM | > 100 µM | > 100 µM
2 | Cc1cn(-c2ccc(S(C)(=O)=O)cc2)c(-c2ccc(Cl)cc2)n1 | > 100000 nM | > 100 µM | > 100000 nM | > 100 µM | > 100 µM | > 100 µM | > 100 µM | > 100 µM | > 100 µM | > 100 µM | > 100 µM | > 100 µM | > 100000 nM | > 100 µM | > 100 µM | > 100 µM | > 100000 nM | > 100 µM | > 100 µM | > 100 µM
3 | Nc1nc(=O)n([C@@H]2CS[C@H](CO)O2)cc1F | > 100000 nM | > 100 µM | > 100000 nM | > 100 µM | > 100 µM | > 100 µM | > 100 µM | > 100 µM | > 100 µM | > 100 µM | > 100 µM | > 100 µM | > 100000 nM | > 100 µM | > 100 µM | > 100 µM | > 100000 nM | > 100 µM | > 100 µM | > 100 µM
4 | CN(C)c1ccc(C(c2ccc(Cl)cc2)c2ccc(N(C)C)cc2)cc1 | – | > 100 µM | – | > 100 µM | – | > 100 µM | – | > 100 µM | – | > 100 µM | – | > 100 µM | – | > 100 µM | – | > 100 µM | – | > 100 µM | – | > 100 µM
5 | Cc1ccc(-c2nc(-c3cn(C)c4ncccc34)cs2)cc1 | 2350 nM | 8.18 µM | 2140 nM | 16.7 µM | 9.41 µM | 28 µM | 3.7 µM | 14.6 µM | 7.78 µM | 26.5 µM | 10.2 µM | 26.4 µM | 7260 nM | 32.2 µM | 3.23 µM | 11.3 µM | 4880 nM | 21.5 µM | 6.74 µM | 21.6 µM
6 | Cc1cccc(C)c1Nc1nc(C)c(C(=O)CC(=O)C(=O)Nc2c(C(C)C)cccc2C(C)C)s1 | – | > 100 µM | – | > 100 µM | – | > 100 µM | – | > 100 µM | – | > 100 µM | – | > 100 µM | – | > 100 µM | – | > 100 µM | – | > 100 µM | – | > 100 µM
7 | CCOC(=O)c1cnn2c3ccccc3n(S(=O)(=O)c3ccc(OC)cc3)c12 | 211 nM | > 100 µM | 338 nM | 38.8 µM | 17.1 µM | > 100 µM | 0.319 µM | 2.27 µM | 0.558 µM | > 100 µM | 5.98 µM | > 100 µM | 478 nM | > 100 µM | 0.181 µM | 0.493 µM | 889 nM | > 100 µM | 25.2 µM | > 100 µM
8 | O=C(c1ccccc1)n1c(-c2ccccc2)cs/c1=N\S(=O)(=O)c1ccc(N2N=C3c4ccccc4CC3C2c2cccs2)cc1 (stereo not given) | 33000 nM | > 100 µM | 32700 nM | > 100 µM | 45.7 µM | > 100 µM | 24.4 µM | > 100 µM | 34.3 µM | > 100 µM | > 100 µM | > 100 µM | > 100000 nM | > 100 µM | 55.2 µM | > 100 µM | 41300 nM | > 100 µM | 30.5 µM | 70.7 µM
9 | CCOC(=O)/C=C/C(=O)[C@H](CC(C)C)NC(=O)[C@H](Cc1ccccc1)NC(=O)OCc1ccccc1 | 3540 nM | 13.2 µM | 2100 nM | 4.37 µM | 15 µM | 29.2 µM | 16.4 µM | 31.1 µM | 14.3 µM | 31.1 µM | 3.12 µM | 12 µM | 2320 nM | 4.89 µM | 3.19 µM | 10.4 µM | 2920 nM | 6.35 µM | 1.87 µM | 3.81 µM
10 | COc1cc(/C=C/c2cc(/C=C/c3ccc(O)c(OC)c3)n(C(=O)Nc3ccc(Cl)cc3)n2)ccc1O | 370 nM | 1.4 µM | 215 nM | 0.802 µM | 1.26 µM | 6.81 µM | 0.306 µM | 1.25 µM | 2.47 µM | 7.52 µM | 1.07 µM | 4.07 µM | 661 nM | 4.66 µM | 0.329 µM | 1.07 µM | 975 nM | 10.7 µM | 0.966 µM | 6.18 µM
11 | Cc1cnc(Nc2ccc(N3CCN(C)CC3)cc2)nc1Nc1ccc(Cl)c(NS(=O)(=O)C(C)(C)C)c1 | 112 nM | 1.78 µM | 73 nM | 1.6 µM | 1.36 µM | 2.88 µM | 0.312 µM | 1.51 µM | 0.219 µM | 13.4 µM | 0.772 µM | 2.73 µM | 154 nM | 2.66 µM | 0.324 µM | 2.93 µM | 159 nM | 2.23 µM | 0.0638 µM | 0.936 µM
